Results published in article PMC7490411 (Signal Transduction and Targeted Therapy, 2020).

Assays:
BTK = target: T1, BTK (Homo sapiens, UniProt Q06187); test: ADP-Glo biochemical kinase assay; conditions: purified BTK protein, read-out: IC50 against BTK
T1 construct: purchased Invitrogen (Carlsbad, CA, USA)
Method: ADP-Glo^TM assay kits from Promega Corporation were used according to instructions. CHMFL-BTK-85 was generally prepared with 1:3 serial dilutions for 4 concentrations (300 nM, 100 nM, 30 nM, and 10 nM). 8 concentrations were used (1 μM to 1 nM) for ATP competition experiments. 2.5 µL BTK (10 ng/µL) was incubated with CHMFL-BTK-85 and CHMFL-BTK-85R for 60 min at room temperature in reaction buffer followed by addition of 2.5 µL ATP/substrate mixture. The assay was conducted for 1 h at 37 °C. After the plate cooled for 5 min at room temperature, 5 μL of ADP-Glo reagent was added into each well to stop the reaction and consume the remaining […] within 40 min. At the end, 10 µL kinase detection reagent was added and incubated for 30 min at room temperature. The luminescence signal was read with an envision Perkin Elmer plate reader (Envision, PE, USA).
The biochemical tests of BMX, BLK, JAK3, TXK, HER2, HER4, ITK, EGFR, and BTK were provided by Invitrogen (Carlsbad, CA, USA).

ADCK3 = test: KINOMEscan; type: binding; conditions: 1000 nM
AXL = test: KINOMEscan; type: binding; conditions: 1000 nM
BIKE = test: KINOMEscan; type: binding; conditions: 1000 nM
CAMK1D = test: KINOMEscan; type: binding; conditions: 1000 nM
CDK2 = test: KINOMEscan; type: binding; conditions: 1000 nM
CHEK1 = test: KINOMEscan; type: binding; conditions: 1000 nM
CSNK1G1 = test: KINOMEscan; type: binding; conditions: 1000 nM
DYRK2 = test: KINOMEscan; type: binding; conditions: 1000 nM
EGFR = target: T2, EGFR (Homo sapiens, UniProt P00533); test: KINOMEscan; type: binding; conditions: 1000 nM
T2 construct: purchased Invitrogen (Carlsbad, CA, USA)
T2 sequence (P00533 25-1210): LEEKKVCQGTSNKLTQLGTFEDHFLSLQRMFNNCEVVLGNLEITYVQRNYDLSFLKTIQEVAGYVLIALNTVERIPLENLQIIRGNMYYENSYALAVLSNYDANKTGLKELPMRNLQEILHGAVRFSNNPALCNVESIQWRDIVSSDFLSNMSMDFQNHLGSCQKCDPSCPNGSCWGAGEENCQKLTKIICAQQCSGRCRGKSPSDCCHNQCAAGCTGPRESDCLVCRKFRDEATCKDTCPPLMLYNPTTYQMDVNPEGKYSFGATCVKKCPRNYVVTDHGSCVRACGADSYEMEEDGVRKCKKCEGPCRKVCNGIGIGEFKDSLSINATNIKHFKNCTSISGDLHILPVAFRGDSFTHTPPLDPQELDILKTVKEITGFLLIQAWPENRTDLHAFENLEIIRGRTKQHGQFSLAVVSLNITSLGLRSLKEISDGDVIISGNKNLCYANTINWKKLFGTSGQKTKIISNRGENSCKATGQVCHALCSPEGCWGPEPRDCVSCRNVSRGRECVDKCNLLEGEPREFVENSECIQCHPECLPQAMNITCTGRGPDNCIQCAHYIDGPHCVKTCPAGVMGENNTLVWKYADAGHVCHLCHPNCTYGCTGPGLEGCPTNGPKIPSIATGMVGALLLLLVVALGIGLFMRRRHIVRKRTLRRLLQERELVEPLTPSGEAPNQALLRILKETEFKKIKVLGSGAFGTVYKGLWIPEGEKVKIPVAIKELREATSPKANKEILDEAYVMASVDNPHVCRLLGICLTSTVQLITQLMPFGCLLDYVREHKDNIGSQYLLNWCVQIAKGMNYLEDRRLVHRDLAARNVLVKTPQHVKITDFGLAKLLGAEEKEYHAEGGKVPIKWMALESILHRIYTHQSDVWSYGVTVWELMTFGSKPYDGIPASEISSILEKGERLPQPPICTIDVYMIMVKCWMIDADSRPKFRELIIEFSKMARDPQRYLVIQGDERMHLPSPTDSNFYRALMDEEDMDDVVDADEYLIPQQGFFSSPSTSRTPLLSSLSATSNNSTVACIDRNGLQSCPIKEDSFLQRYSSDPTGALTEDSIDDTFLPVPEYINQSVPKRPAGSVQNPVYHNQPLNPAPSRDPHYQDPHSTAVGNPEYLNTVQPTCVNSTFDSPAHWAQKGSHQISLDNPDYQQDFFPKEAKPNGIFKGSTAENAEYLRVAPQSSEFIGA

EGFR(G719C) = test: KINOMEscan; type: binding; conditions: 1000 nM
EPHA4 = test: KINOMEscan; type: binding; conditions: 1000 nM
EPHA6 = test: KINOMEscan; type: binding; conditions: 1000 nM
ERK8 = test: KINOMEscan; type: binding; conditions: 1000 nM
FAK = test: KINOMEscan; type: binding; conditions: 1000 nM
FGFR1 = test: KINOMEscan; type: binding; conditions: 1000 nM
FLT1 = test: KINOMEscan; type: binding; conditions: 1000 nM
FLT3(D835Y) = test: KINOMEscan; type: binding; conditions: 1000 nM
FLT3(ITD,F691L) = test: KINOMEscan; type: binding; conditions: 1000 nM
LATS2 = test: KINOMEscan; type: binding; conditions: 1000 nM
MET = test: KINOMEscan; type: binding; conditions: 1000 nM
MYLK = test: KINOMEscan; type: binding; conditions: 1000 nM
p38-beta = test: KINOMEscan; type: binding; conditions: 1000 nM
PIK3CA(E545A) = test: KINOMEscan; type: binding; conditions: 1000 nM
PIK3CB = test: KINOMEscan; type: binding; conditions: 1000 nM
PRP4 = test: KINOMEscan; type: binding; conditions: 1000 nM
[1] = tested on: RSK1(Kin.Dom.2-C-terminal); test: KINOMEscan; type: binding; conditions: 1000 nM
[2] = tested on: RSK2(Kin.Dom.2-C-terminal); test: KINOMEscan; type: binding; conditions: 1000 nM
SGK = test: KINOMEscan; type: binding; conditions: 1000 nM
TGFBR2 = test: KINOMEscan; type: binding; conditions: 1000 nM
[3] = tested on: TYK2(JH2domain-pseudokinase); test: KINOMEscan; type: binding; conditions: 1000 nM

T1 sequence (Q06187 whole entry): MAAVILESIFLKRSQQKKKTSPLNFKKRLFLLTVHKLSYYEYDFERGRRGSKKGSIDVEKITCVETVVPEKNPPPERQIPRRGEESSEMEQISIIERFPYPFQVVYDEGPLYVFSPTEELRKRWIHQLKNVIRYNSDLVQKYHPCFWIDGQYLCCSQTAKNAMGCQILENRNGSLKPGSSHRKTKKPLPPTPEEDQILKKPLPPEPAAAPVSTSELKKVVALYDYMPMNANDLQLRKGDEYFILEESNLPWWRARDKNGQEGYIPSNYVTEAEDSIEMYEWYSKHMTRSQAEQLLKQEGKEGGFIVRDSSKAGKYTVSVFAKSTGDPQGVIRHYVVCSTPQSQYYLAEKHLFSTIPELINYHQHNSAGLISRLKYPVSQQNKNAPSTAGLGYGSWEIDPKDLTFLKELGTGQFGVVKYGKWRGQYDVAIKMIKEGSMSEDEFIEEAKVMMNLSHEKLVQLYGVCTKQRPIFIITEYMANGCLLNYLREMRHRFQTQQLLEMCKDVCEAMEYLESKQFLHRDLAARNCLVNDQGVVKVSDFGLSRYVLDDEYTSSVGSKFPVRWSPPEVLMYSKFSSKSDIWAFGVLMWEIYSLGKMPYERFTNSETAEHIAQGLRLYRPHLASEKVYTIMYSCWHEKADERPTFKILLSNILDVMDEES

C=CC(=O)Nc1cc(Nc2cc(-c3cccc(NC(=O)c4cc5c(s4)CCCC5)c3C)cn(C)c2=O)ccc1N1CCN(CC)CC1 [CHMFL-BTK-85]
IC50 (BTK): 11.5 nM
Percent Control (ADCK3): 78%
Percent Control (AXL): 100%
Percent Control (BIKE): 100%
Percent Control (CAMK1D): 100%
Percent Control (CDK2): 85%
Percent Control (CHEK1): 79%
Percent Control (CSNK1G1): 95%
Percent Control (DYRK2): 98%
kinase binding remaining (percent of control) at 1 µM (EGFR): 58%
Percent Control (EGFR(G719C)): 81%
Percent Control (EPHA4): 100%
Percent Control (EPHA6): 100%
Percent Control (ERK8): 95%
Percent Control (FAK): 99%
Percent Control (FGFR1): 86%
Percent Control (FLT1): 100%
Percent Control (FLT3(D835Y)): 100%
Percent Control (FLT3(ITD,F691L)): 77%
Percent Control (LATS2): 100%
Percent Control (MET): 62%
Percent Control (MYLK): 66%
Percent Control (p38-beta): 89%
Percent Control (PIK3CA(E545A)): 65%
Percent Control (PIK3CB): 94%
Percent Control (PRP4): 92%
Percent Control [1]: 100%
Percent Control [2]: 99%
Percent Control (SGK): 100%
Percent Control (TGFBR2): 100%
Percent Control [3]: 100%
